# “Also recorded” adds a separate entry of the source. Where two headings read alike, the source gives them in different places.
# Tested on: AML/MDS patients
# Settings: for Fatal SAE: Adverse event / Fatal SAE: Grade / Fatal SAE: Relationship to Bemcentinib: per patient
# Protocol: Safety assessments including standard clinical laboratory safety tests (hematology, biochemistry, coagulation, and urinalysis), physical examinations, vital signs (blood pressure, heart rate, respiration rate and temperature), and ECOG performance status were performed at baseline and throughout the study. Electrocardiograms were obtained at screening, Cycle 1 Day 1–4, 8, and 15, Cycle 2 Day 1, 8 and 15, at Day 1 of each cycle thereafter, (up to and including Cycle 15), and at Final Study Visit. QT prolongation was assessed using the Fridericia correction […] [34]. Severity of QTcF prolongation was defined as follows: Grade 1: maximum prolongation 450–480 ms; Grade 2: maximum prolongation 481-500 ms; Grade 3: ≥501 ms on at least two separate ECGs; Grade 4: ≥501 ms or >60 ms change from baseline, with Torsades de pointes, polymorphic ventricular tachycardia or signs/symptoms of serious arrythmia; Grade 5: Death.
# Adverse events (AEs) were monitored starting at study enrolment until 28 days after end of treatment and graded according to the National Cancer Institute Common Terminology Criteria for Adverse Events (NCI-CTCAE) version 4.0. If drug-related toxicities continued beyond the follow-up period, patients were followed until all drug-related toxicities resolved to grade ≤1, stabilized or returned to baseline.
# [1] = DE and LDAC cohorts combined (n = 72)
smiles,measurement,setting,value
Nc1nc(Nc2ccc3c(c2)CC[C@@H](N2CCCC2)CC3)nn1-c1cc2c(nn1)-c1ccccc1CCC2 [Bemcentinib],Fatal SAEs: cerebral hemorrhage,[1],2 n
same,Fatal SAEs: pneumonia/fungal pneumonia,[1],3 n
same,Fatal SAEs: sepsis/neutropenic sepsis,[1],4 n
same,Fatal SAEs,DE cohort,7
same,"Actinomyces test positive, number of events (E)","human, in vivo",1
same,"Actinomyces test positive, patients affected","human, in vivo",1 (2.8) n (%)
same,"Anaemia, number of events (E)","human, in vivo",4
same,"Anaemia, patients affected","human, in vivo",4 (11.1) n (%)
same,"Anxiety, number of events (E)","human, in vivo",2
same,"Anxiety, patients affected","human, in vivo",2 (5.6) n (%)
same,"Back pain, number of events (E)","human, in vivo",1
same,"Back pain, patients affected","human, in vivo",1 (2.8) n (%)
same,"Blood and lymphatic system disorders (System Organ Class), number of events (E)","human, in vivo",26
same,"Blood and lymphatic system disorders (System Organ Class), patients affected","human, in vivo",12 (33.3) n (%)
same,"Cardiac disorders (System Organ Class), number of events (E)","human, in vivo",10
same,"Cardiac disorders (System Organ Class), patients affected","human, in vivo",4 (11.1) n (%)
same,"Decreased appetite, number of events (E)","human, in vivo",2
same,"Decreased appetite, patients affected","human, in vivo",2 (5.6) n (%)
same,"Dehydration, number of events (E)","human, in vivo",1
same,"Dehydration, patients affected","human, in vivo",1 (2.8) n (%)
same,"Device related infection, number of events (E)","human, in vivo",1
same,"Device related infection, patients affected","human, in vivo",1 (2.8) n (%)
same,"Diarrhoea, number of events (E)","human, in vivo",6
same,"Diarrhoea, patients affected","human, in vivo",3 (8.3) n (%)
same,"Dysgeusia, number of events (E)","human, in vivo",1
same,"Dysgeusia, patients affected","human, in vivo",1 (2.8) n (%)
same,"Dysphagia, number of events (E)","human, in vivo",1
same,"Dysphagia, patients affected","human, in vivo",1 (2.8) n (%)
same,"Dyspnoea exertional, number of events (E)","human, in vivo",1
same,"Dyspnoea exertional, patients affected","human, in vivo",1 (2.8) n (%)
same,"Dyspnoea, number of events (E)","human, in vivo",1
same,"Dyspnoea, patients affected","human, in vivo",1 (2.8) n (%)
same,"Enterococcal bacteraemia, number of events (E)","human, in vivo",1
same,"Enterococcal bacteraemia, patients affected","human, in vivo",1 (2.8) n (%)
same,"Enthesopathy, number of events (E)","human, in vivo",1
same,"Enthesopathy, patients affected","human, in vivo",1 (2.8) n (%)
same,"Epistaxis, number of events (E)","human, in vivo",2
same,"Epistaxis, patients affected","human, in vivo",1 (2.8) n (%)
same,"Fall, number of events (E)","human, in vivo",1
same,"Fall, patients affected","human, in vivo",1 (2.8) n (%)
same,"Fatigue, number of events (E)","human, in vivo",4
same,"Fatigue, patients affected","human, in vivo",2 (5.6) n (%)
same,"Gastrointestinal disorders (System Organ Class), number of events (E)","human, in vivo",18
same,"Gastrointestinal disorders (System Organ Class), patients affected","human, in vivo",12 (33.3) n (%)
same,"General disorders and administration site conditions (System Organ Class), number of events (E)","human, in vivo",8
same,"General disorders and administration site conditions (System Organ Class), patients affected","human, in vivo",6 (16.7) n (%)
same,"General physical health deterioration, number of events (E)","human, in vivo",3
same,"General physical health deterioration, patients affected","human, in vivo",3 (8.3) n (%)
same,"Gingivitis, number of events (E)","human, in vivo",1
same,"Gingivitis, patients affected","human, in vivo",1 (2.8) n (%)
same,"Haematuria, number of events (E)","human, in vivo",1
same,"Haematuria, patients affected","human, in vivo",1 (2.8) n (%)
same,"Hyperglycaemia, number of events (E)","human, in vivo",4
same,"Hyperglycaemia, patients affected","human, in vivo",2 (5.6) n (%)
same,"Hyperuricaemia, number of events (E)","human, in vivo",2
same,"Hyperuricaemia, patients affected","human, in vivo",2 (5.6) n (%)
same,"Hypoglycaemia, number of events (E)","human, in vivo",1
same,"Hypoglycaemia, patients affected","human, in vivo",1 (2.8) n (%)
same,"Hypokalaemia, number of events (E)","human, in vivo",5
same,"Hypokalaemia, patients affected","human, in vivo",5 (13.9) n (%)
same,"Hyponatraemia, number of events (E)","human, in vivo",2
same,"Hyponatraemia, patients affected","human, in vivo",2 (5.6) n (%)
same,"Hypophosphataemia, number of events (E)","human, in vivo",3
same,"Hypophosphataemia, patients affected","human, in vivo",3 (8.3) n (%)
same,"Hypotension, number of events (E)","human, in vivo",3
same,"Hypotension, patients affected","human, in vivo",3 (8.3) n (%)
same,"Hypoxia, number of events (E)","human, in vivo",2
same,"Hypoxia, patients affected","human, in vivo",2 (5.6) n (%)
same,"Infection, number of events (E)","human, in vivo",2
same,"Infection, patients affected","human, in vivo",2 (5.6) n (%)
same,"Infections and infestations (System Organ Class), number of events (E)","human, in vivo",29
same,"Infections and infestations (System Organ Class), patients affected","human, in vivo",23 (63.9) n (%)
same,"Injury, poisoning and procedural complications (System Organ Class), number of events (E)","human, in vivo",1
same,"Injury, poisoning and procedural complications (System Organ Class), patients affected","human, in vivo",1 (2.8) n (%)
same,"Investigations (System Organ Class), number of events (E)","human, in vivo",8
same,"Investigations (System Organ Class), patients affected","human, in vivo",7 (19.4) n (%)
same,"Lactic acidosis, number of events (E)","human, in vivo",1
same,"Lactic acidosis, patients affected","human, in vivo",1 (2.8) n (%)
same,"Leukocytosis, number of events (E)","human, in vivo",1
same,"Leukocytosis, patients affected","human, in vivo",1 (2.8) n (%)
same,"Melaena, number of events (E)","human, in vivo",1
same,"Melaena, patients affected","human, in vivo",1 (2.8) n (%)
same,"Mental status changes, number of events (E)","human, in vivo",1
same,"Mental status changes, patients affected","human, in vivo",1 (2.8) n (%)
same,"Metabolism and nutrition disorders (System Organ Class), number of events (E)","human, in vivo",21
same,"Metabolism and nutrition disorders (System Organ Class), patients affected","human, in vivo",14 (38.9) n (%)
same,"Musculoskeletal and connective tissue disorders (System Organ Class), number of events (E)","human, in vivo",4
same,"Musculoskeletal and connective tissue disorders (System Organ Class), patients affected","human, in vivo",2 (5.6) n (%)
same,"Nausea, number of events (E)","human, in vivo",3
same,"Nausea, patients affected","human, in vivo",3 (8.3) n (%)
same,"Nervous system disorders (System Organ Class), number of events (E)","human, in vivo",3
same,"Nervous system disorders (System Organ Class), patients affected","human, in vivo",3 (8.3) n (%)
same,"Neutropenia, number of events (E)","human, in vivo",3
same,"Neutropenia, patients affected","human, in vivo",2 (5.6) n (%)
same,"Number of TEAE, number of events (E)","human, in vivo",148
same,"Number of TEAE, patients affected","human, in vivo",35 (97.2) n (%)
same,"Oesophagitis, number of events (E)","human, in vivo",1
same,"Oesophagitis, patients affected","human, in vivo",1 (2.8) n (%)
same,"Osteitis, number of events (E)","human, in vivo",1
same,"Osteitis, patients affected","human, in vivo",1 (2.8) n (%)
same,Patients with dose interruptions due to adverse events,"human, in vivo",17
same,Patients with dose reductions,"human, in vivo",3
same,"Pharyngitis, number of events (E)","human, in vivo",1
same,"Pharyngitis, patients affected","human, in vivo",1 (2.8) n (%)
same,"Pneumonia, number of events (E)","human, in vivo",8
same,"Pneumonia, patients affected","human, in vivo",8 (22.2) n (%)
same,"Psychiatric disorders (System Organ Class), number of events (E)","human, in vivo",3
same,"Psychiatric disorders (System Organ Class), patients affected","human, in vivo",3 (8.3) n (%)
same,"Pulmonary congestion, number of events (E)","human, in vivo",1
same,"Pulmonary congestion, patients affected","human, in vivo",1 (2.8) n (%)
same,"Rash erythematous, number of events (E)","human, in vivo",1
same,"Rash erythematous, patients affected","human, in vivo",1 (2.8) n (%)
same,"Renal and urinary disorders (System Organ Class), number of events (E)","human, in vivo",4
same,"Renal and urinary disorders (System Organ Class), patients affected","human, in vivo",2 (5.6) n (%)
same,"Respiratory failure, number of events (E)","human, in vivo",1
same,"Respiratory failure, patients affected","human, in vivo",1 (2.8) n (%)
same,"Respiratory, thoracic and mediastinal disorders (System Organ Class), number of events (E)","human, in vivo",9
same,"Respiratory, thoracic and mediastinal disorders (System Organ Class), patients affected","human, in vivo",6 (16.7) n (%)
same,"Sepsis, number of events (E)","human, in vivo",3
same,"Sepsis, patients affected","human, in vivo",3 (8.3) n (%)
same,"Skin and subcutaneous tissue disorders (System Organ Class), number of events (E)","human, in vivo",1
same,"Skin and subcutaneous tissue disorders (System Organ Class), patients affected","human, in vivo",1 (2.8) n (%)
same,"Stomatitis, number of events (E)","human, in vivo",1
same,"Stomatitis, patients affected","human, in vivo",1 (2.8) n (%)
same,"Streptococcal bacteraemia, number of events (E)","human, in vivo",1
same,"Streptococcal bacteraemia, patients affected","human, in vivo",1 (2.8) n (%)
same,"Supraventricular tachycardia, number of events (E)","human, in vivo",1
same,"Supraventricular tachycardia, patients affected","human, in vivo",1 (2.8) n (%)
same,"Syncope, number of events (E)","human, in vivo",1
same,"Syncope, patients affected","human, in vivo",1 (2.8) n (%)
same,TEAE leading to Discontinuation,"human, in vivo",4 n (%)
same,"Thrombocytopenia, number of events (E)","human, in vivo",7
same,"Thrombocytopenia, patients affected","human, in vivo",5 (13.9) n (%)
same,"Toothache, number of events (E)","human, in vivo",1
same,"Toothache, patients affected","human, in vivo",1 (2.8) n (%)
same,"Urethral haemorrhage, number of events (E)","human, in vivo",1
same,"Urethral haemorrhage, patients affected","human, in vivo",1 (2.8) n (%)
same,"Urinary incontinence, number of events (E)","human, in vivo",1
same,"Urinary incontinence, patients affected","human, in vivo",1 (2.8) n (%)
same,"Vascular disorders (System Organ Class), number of events (E)","human, in vivo",3
same,"Vascular disorders (System Organ Class), patients affected","human, in vivo",3 (8.3) n (%)
same,"Viral infection, number of events (E)","human, in vivo",1
same,"Viral infection, patients affected","human, in vivo",1 (2.8) n (%)
same,"Vomiting, number of events (E)","human, in vivo",2
same,"Vomiting, patients affected","human, in vivo",2 (5.6) n (%)
same,"Oral pain, number of events (E)","human, in vivo, po",1
same,"Oral pain, patients affected","human, in vivo, po",1 (2.8) n (%)
same,Eye toxicity of grade ≥3,in vivo,Only a single event
same,Retinal toxicities,in vivo,no evidence for retinal toxicities
same,Tolerability,in vivo,well-tolerated
same,Fatal SAE: Adverse event,Dose escalation 400 mg/100 mg,Neutropenic sepsis
same,Fatal SAE: Grade,Dose escalation 400 mg/100 mg,5
same,Fatal SAE: Relationship to Bemcentinib,Dose escalation 400 mg/100 mg,Unrelated
same,Fatal SAE: Adverse event,Dose escalation 400 mg/200 mg,Multi-organ failure; also recorded: Pneumonia fungal; also recorded: Cerebral haemorrhage
same,Fatal SAE: Grade,Dose escalation 400 mg/200 mg,5
same,Fatal SAE: Relationship to Bemcentinib,Dose escalation 400 mg/200 mg,Unrelated; also recorded: Unlikely related
same,Fatal SAE: Adverse event,Dose escalation 600 mg/200 mg,Pneumonia; also recorded: Sepsis
same,Fatal SAE: Grade,Dose escalation 600 mg/200 mg,5
same,Fatal SAE: Relationship to Bemcentinib,Dose escalation 600 mg/200 mg,Unrelated

# — article PMC11930985 (Nature Communications, 2025)
